# Experimental data reported in patent US9889152B2, “Multiple PPI dosage form” (TAKEDA PHARMACEUTICALS U.S.A., INC., priority 2004, dated 2018).
# Experiments:
# gastric pH = test: Threshold level modeling: effect compartment / sigmoid Emax PK-PD model of intragastric pH versus lansoprazole concentration after single intravenous doses; assay type: in vivo, humans; details: effect compartment concentration (assumed same as plasma concentration at steady-state), fasting, FIG. 1
# Text: Plasma concentration data obtained following administration of single intravenous doses of lansoprazole in humans was modeled to establish threshold concentrations above which a PPI is effective. Initially, gastric pH measured over the five hours post dosing (under fasting conditions) was plotted as a function of plasma concentration. However, no direct relationship between the gastric pH and the drug's plasma concentration could be established. […] An effect compartment model was then used in an attempt to delineate a useful relationship between drug concentration and effect. Accordingly, a model was proposed where a PK compartment was linked to a separate effect compartment. […] Using the same intravenous data, the pharmacological effect was modeled using sigmoid Emax model and PK was modeled using the two compartment model. The modeling first established the pharmacokinetic characteristics of lansoprazole, then the relationship between drug plasma concentration and intragastric pH was established, and pharacodynamic parameter estimates were obtained. The modeling provided the graph shown in FIG. 1 where the effect compartment concentration (assumed to be the same as the plasma concentration at steady-state) is on the x-axis and gastric pH on the y-axis. […]
# [1] = Site of absorption study (Phase 1, remote control capsule, segmental absorption and pharmacokinetics); assay type: in vivo, human; details: 30 mg powder with sodium bicarbonate released via remote control capsule; healthy adult males
# Text: This was a Phase 1, open-label, non-randomized, four-period, single-dose, crossover study in 8 healthy adult males. […] Upon receiving a remote signal during Periods 1, 2, and 3, the capsule released it's contents in the pre-designated site within the GI tract (see table 1 below).
# Indium-111 chloride (^111 In-chloride) was used as the radioactive marker in the test formulation that was filled into remote control capsule. Each subject also received a second radioisotope, technetium-99m DTPA (^99mTc-DTPA), in the water used to swallow the InteliSite Companion capsule. Since the radioisotopes are not absorbed, progress of the formulation through the GI tract was monitored using a gamma camera that captures images at frequent intervals after ingestion of the dose. The radioisotope in the water outlined or “mapped” the GI tract to delineate the targeted site of drug release. […]
# The relative bioavailability of lansoprazole delivered to the proximal small intestine, distal small intestine, or colon compared to the delayed release lansoprazole capsule was calculated as the ratios of AUC∞ for different GI regions to that of the delayed release capsule. In addition, the relative bioavailability of lansoprazole delivered to the distal small intestine and colon compared to the proximal small intestine was calculated.
smiles,measurement,setting,value
Cc1c(OCC(F)(F)F)ccnc1C[S+]([O-])c1nc2ccccc2[nH]1 (stereo not shown) [lansoprazole],concentration above which the effect on gastric pH levels off,gastric pH,~450 ng/ml
same,threshold concentration above which the effect of the drug (rise of gastric pH above baseline) begins,gastric pH,approximately 100 ng/ml
same,extent of absorption when directly delivered to the colon,[1],reduced
same,rate and extent of absorption from the distal small intestine versus proximal intestine,[1],"less than those obtained for the proximal intestine, although the absorptions were comparable"
